Experimental findings from patent publication KR20140034898A, “헤테로시클릭 술폰아미드 유도체” (노파르티스 아게, priority 2011, dated 2012) are described below.

Data set [1] concerns the target BRAF-MEK-ERK cascade [BRAF-MEK-ERK 캐스케이드]. The data set can be described thus: BRAF-MEK-ERK cascade assay (TR-FRET, recombinant enzymes). Particulars: mean ± SEM, n=3; 100 μM ATP; 45 min pre-incubation, 90 min kinase reaction. The class given is biochemical, human.
The next data set relates to A375 cells [A375 세포]. The data set can be described thus: A375 cell viability assay (XTT). It is filed as cell-based. As to conditions: Homo sapiens, A-375, 72 h, 3 days after compound addition.
Another data set deals with A375 P-Erk. Kind of data set: A375 P-Erk (In-Cell-Western). It is filed as cell-based. As to conditions: A-375; A375 human melanoma cells, 3 h compound treatment, triplicate; 100% inhibition = reference inhibitor at highest test concentration.
Data set [2] in a line: Pharmacokinetics in athymic nude rats. It is filed as in vivo, rat. As to conditions: one-way ANOVA versus Example 1.

The structures appear in SMILES notation.

As to `O=S(=O)(Nc1c(Nc2ccc(I)cc2F)c(F)c(F)c2ccoc12)C1(CC(O)CO)CC1` (racemic) [실시예 1, 1-(2,3-디히드록시-프로필)-시클로프로판술폰산 [4,5-디플루오로-6-(2-플루오로-4-아이오도-페닐아미노)-벤조푸란-7-일]아미드], in data set [1], the 50% inhibitory concentration (IC50) is 0.0021 ± 0.00058 µM. Besides, halving of growth in the data set with A375 cells [A375 세포] (GI50) required 0.0176 µM. Also, in the data set with A375 P-Erk, the EC50 stood at 0.0122 µM.
Regarding `O=S(=O)(Nc1c(Nc2ccc(I)cc2F)c(F)c(F)c2ccoc12)C1(C[C@H](O)CO)CC1` (single isomer, unassigned) [실시예 1A], the IC50 in data set [1] is 0.002 ± 0.00025 µM. This molecule also registered a GI50 in the data set on A375 cells [A375 세포] of 0.0134 µM. This molecule registered an EC50 in the data set on A375 P-Erk of 0.0064 µM. In addition, the “PK parameters compared with Example 1” value in data set [2] is reported as “증진된 PK-파라미터”.
As for `O=S(=O)(Nc1c(Nc2ccc(I)cc2F)c(F)c(F)c2ccoc12)C1(C[C@@H](O)CO)CC1` (single isomer, unassigned) [실시예 1B], the IC50 in data set [1] was 0.0016 ± 0.0001 µM. The molecule also showed a concentration for 50% growth inhibition (GI50) with A375 cells [A375 세포] of 0.0296 µM. In the data set with A375 P-Erk, this molecule displayed an EC50 of 0.0156 µM. The “PK parameters compared with Example 1” value in data set [2] is reported as “증진된 PK-파라미터”.
